Results reported in US10865216B2, “Tricyclic Gyrase inhibitors” (MERCK SHARP & DOHME CORP., priority 2012, dated 2020).
In brackets after ≈: the same amount, converted by molar mass. Read-outs that look alike come from different tables or passages of the source.

Assays:
S. aureus ATCC 13709 = test: MIC, S. aureus ATCC 13709; assay type: cell-based; conditions: for MIC: Staphylococcus aureus, read-out: SA MIC
E. coli ATCC 25922 = test: MIC, E. coli ATCC 25922; assay type: cell-based; conditions: for EC8 MIC / MIC: EC8 not defined; for EC MIC: Table 13, L = NH; for MIC: Escherichia coli, read-out: EC8 MIC
[1] = Table 11, compounds wherein L = CH2
[2] = Table 12, Z is C and connected to R4
[3] = ATCC13709, Table 15, R2 is joined to R4
[4] = ATCC25922, Table 15, R2 is joined to R4
[5] = ATCC13709, Table 16, new R4 substituents
[6] = ATCC25922, Table 16, new R4 substituents

For `CNc1cc(F)cc2c1[nH]c1nc(Cc3cncnc3)nc(N3C[C@H](N)C4(CC4)C3)c12`, the SA MIC (S. aureus ATCC 13709; [1]) was ≤ 0.5 µg/mL and the EC8 MIC (E. coli ATCC 25922; Table 11, L = CH2) was 1 µg/mL.
With `CNc1cc(F)cc2c1[nH]c1nc(Cc3cnc(C)nc3)nc(N3CC[C@@]4(C[C@H]4N)C3)c12` the SA MIC (S. aureus ATCC 13709; [1]) was ≤ 0.5 µg/mL and the EC8 MIC (E. coli ATCC 25922; Table 11, L = CH2) was 2 µg/mL.
For `CNc1cc(F)cc2c1[nH]c1nc(Cc3cnc(C)nc3)nc(N3CC[C@@]4(C[C@@H]4N)C3)c12`, the SA MIC (S. aureus ATCC 13709; [1]) was 1 µg/mL and the EC8 MIC (E. coli ATCC 25922; Table 11, L = CH2) was 8 µg/mL.
In the case of `CNc1cc(F)cc2c1[nH]c1nc(Cc3cnc(C)nc3)nc(N3CC4CC(N)C4C3)c12` (centres unmarked), the SA MIC (S. aureus ATCC 13709; [1]) is reported as ≤ 0.5 µg/mL and the EC8 MIC (E. coli ATCC 25922; Table 11, L = CH2) is reported as 1 µg/mL.
With `CNc1cc(F)cc2c1[nH]c1nc(Cc3cnc(C)nc3)nc(N3CC4(CCC4N)C3)c12` (centres unmarked) the SA MIC (S. aureus ATCC 13709; [1]) was ≤ 0.5 µg/mL and the EC8 MIC (E. coli ATCC 25922; Table 11, L = CH2) was 1 µg/mL.
For `CNc1cc(F)c2c3c1[nH]c1nc(Oc4cnc(C)nc4)nc(c13)-c1ccccc1NC2`, the SA MIC (S. aureus ATCC 13709; [2]) was ≤ 0.5 µg/mL and the EC8 MIC (E. coli ATCC 25922; [2]) was ≤ 0.5 µg/mL.
`CNc1cc(F)c2c3c1[nH]c1nc(Oc4cnc(C)nc4)nc(c13)N1CCC[C@H]1CNC2` was tested, and the SA MIC (S. aureus ATCC 13709; [2]) was 16 µg/mL and the EC8 MIC (E. coli ATCC 25922; [2]) was > 16 µg/mL.
`CNc1cc(F)c2c3c1[nH]c1nc(Oc4cnc(C)nc4)nc(c13)NC(=N)NC2` showed an SA MIC (S. aureus ATCC 13709; [2]) of 4 µg/mL and an EC8 MIC (E. coli ATCC 25922; [2]) of 8 µg/mL.
For `CNc1cc(F)c2c3c1[nH]c1nc(Oc4cnc(C)nc4)nc(c13)-c1ccc(Cl)cc1NC2`, the SA MIC (S. aureus ATCC 13709; [2]) was ≤ 0.5 µg/mL and the EC8 MIC (E. coli ATCC 25922; [2]) was 4 µg/mL.
`CNc1cc(F)c2c3c1[nH]c1nc(Oc4cncnc4)nc(c13)-c1ccccc1NC2` was tested, and the SA MIC (S. aureus ATCC 13709; [2]) was ≤ 0.5 µg/mL and the EC8 MIC (E. coli ATCC 25922; [2]) was > 16 µg/mL.
`CNc1cc(F)c2c3c1[nH]c1nc(Oc4cnc(N)nc4)nc(c13)-c1ccccc1NC2` was tested, and the SA MIC (S. aureus ATCC 13709; [2]) was ≤ 0.5 µg/mL and the EC8 MIC (E. coli ATCC 25922; [2]) was > 16 µg/mL.
In the case of `CNc1cc(F)cc2c1[nH]c1nc(Nc3cnc(C)nc3)nc(N3C[C@H]4CC3C[C@H]4N)c12`, the SA MIC (S. aureus ATCC 13709; Table 13, L = NH) is reported as ≤ 0.5 µg/mL and the EC MIC (E. coli ATCC 25922) is reported as ≤ 0.5 µg/mL.
In the case of `CNc1cc(F)cc2c1[nH]c1nc(Nc3cnc4c(c3)nnn4C(C)C)nc(N3C[C@H]4CC3C[C@H]4N)c12`, the SA MIC (S. aureus ATCC 13709; Table 13, L = NH) is reported as ≤ 0.5 µg/mL and the EC MIC (E. coli ATCC 25922) is reported as 1 µg/mL.
In the case of `CNc1cc(F)cc2c1[nH]c1nc(Nc3cccnc3)nc(N3C[C@H]4CC3C[C@H]4N)c12`, the SA MIC (S. aureus ATCC 13709; Table 13, L = NH) is reported as ≤ 0.5 µg/mL and the EC MIC (E. coli ATCC 25922) is reported as ≤ 0.5 µg/mL.
In the case of `CNc1cc(F)cc2c1[nH]c1nc(Nc3cnc4ccnn4c3)nc(N3C[C@H]4CC3C[C@H]4N)c12`, the SA MIC (S. aureus ATCC 13709; Table 13, L = NH) is reported as ≤ 0.5 µg/mL and the EC MIC (E. coli ATCC 25922) is reported as ≤ 0.5 µg/mL.
For `CCOC(=O)c1csc(Nc2nc(N3C[C@H]4CC3C[C@H]4N)c3c(n2)[nH]c2c(NC)cc(F)cc23)n1`, the SA MIC (S. aureus ATCC 13709; Table 13, L = NH) was ≤ 0.5 µg/mL and the EC MIC (E. coli ATCC 25922) was 1 µg/mL.
With `CNc1cc(F)cc2c1[nH]c1nc(Nc3cnc4nccnc4c3)nc(N3C[C@H]4CC3C[C@H]4N)c12` the SA MIC (S. aureus ATCC 13709; Table 13, L = NH) was ≤ 0.5 µg/mL and the EC MIC (E. coli ATCC 25922) was 16 µg/mL.
In the case of `CNc1cc(F)cc2c1[nH]c1nc3nc(c12)NCCCCCCNC(=O)c1cncc(c1)O3`, the MIC (S. aureus ATCC 13709; [3]) is reported as ≤ 0.5 µg/mL and the MIC (E. coli ATCC 25922; [4]) is reported as 1 µg/mL (≈ 2.22 µM).
For `CNc1cc(F)cc2c1[nH]c1nc3nc(c12)NCCCCCCNC(=O)CSc1ncc(cn1)O3`, the MIC (S. aureus ATCC 13709; [3]) was ≤ 0.5 µg/mL and the MIC (E. coli ATCC 25922; [4]) was > 16 µg/mL.
`CNc1cc(F)cc2c1[nH]c1nc3nc(c12)NCCCCNC(=O)CSc1ncc(cn1)O3` was tested, and the MIC (S. aureus ATCC 13709; [3]) was ≤ 0.5 µg/mL and the MIC (E. coli ATCC 25922; [4]) was 2 µg/mL (≈ 4.27 µM).
`CNc1cc(F)cc2c1[nH]c1nc3nc(c12)N[C@@H](CN)COCCCNC(=O)CSc1ncc(cn1)O3` was tested, and the MIC (S. aureus ATCC 13709; [3]) was 2 µg/mL (≈ 3.79 µM) and the MIC (E. coli ATCC 25922; [4]) was 8 µg/mL (≈ 15.2 µM).
In the case of `CNc1cc(F)cc2c1[nH]c1nc(Oc3cnc4ccoc4c3)nc(N3CCC(C)(CN)C3)c12` (centres unmarked), the MIC (S. aureus ATCC 13709; [5]) is reported as ≤ 0.5 µg/mL and the MIC (E. coli ATCC 25922; [6]) is reported as 0.5 µg/mL (≈ 1.08 µM).
In the case of `CNc1cc(F)cc2c1[nH]c1nc(Oc3cnc(C)nc3)nc(N3CCC(C4CNC4)C3)c12` (centres unmarked), the MIC (S. aureus ATCC 13709; [5]) is reported as ≤ 0.5 µg/mL and the MIC (E. coli ATCC 25922; [6]) is reported as 8 µg/mL (≈ 17.8 µM).
With `CNc1cc(F)cc2c1[nH]c1nc(Oc3cnc(C)nc3)nc(N3CCC(C)(N)C3)c12` (centres unmarked) the MIC (S. aureus ATCC 13709; [5]) was ≤ 0.5 µg/mL and the MIC (E. coli ATCC 25922; [6]) was ≤ 0.5 µg/mL.
`CNc1cc(F)cc2c1[nH]c1nc(Oc3cnc(C)nc3)nc(N3CCC(F)(CN)C3)c12` (centres unmarked) was tested, and the MIC (S. aureus ATCC 13709; [5]) was ≤ 0.5 µg/mL and the MIC (E. coli ATCC 25922; [6]) was ≤ 0.5 µg/mL.
`CNc1cc(F)cc2c1[nH]c1nc(Oc3cnc(C)nc3)nc(N3CCCC3=O)c12` was tested, and the MIC (S. aureus ATCC 13709; [5]) was 1 µg/mL (≈ 2.45 µM) and the MIC (E. coli ATCC 25922; [6]) was > 16 µg/mL.
In the case of `CNc1cc(F)cc2c1[nH]c1nc(Oc3cnc(C)nc3)nc(-c3ccc(C4(N)CC4)cc3)c12`, the MIC (S. aureus ATCC 13709; [5]) is reported as ≤ 0.5 µg/mL and the MIC (E. coli ATCC 25922; [6]) is reported as 4 µg/mL (≈ 8.78 µM).
For `CNc1cc(F)cc2c1[nH]c1nc(Oc3cnc(C)nc3)nc(N3CCC(N)(CN)C3)c12` (centres unmarked), the MIC (S. aureus ATCC 13709; [5]) was ≤ 0.5 µg/mL and the MIC (E. coli ATCC 25922; [6]) was 16 µg/mL (≈ 36.6 µM).
`CNc1cc(F)cc2c1[nH]c1nc(Oc3cnc(C)nc3)nc(N3CCC(N)(C(F)(F)F)C3)c12` (centres unmarked) was tested, and the MIC (S. aureus ATCC 13709; [5]) was ≤ 0.5 µg/mL and the MIC (E. coli ATCC 25922; [6]) was 1 µg/mL (≈ 2.1 µM).
In the case of `CCC1(CN)CCN(c2nc(Oc3cnc(C)nc3)nc3[nH]c4c(NC)cc(F)cc4c23)C1` (centres unmarked), the MIC (S. aureus ATCC 13709; [5]) is reported as ≤ 0.5 µg/mL and the MIC (E. coli ATCC 25922; [6]) is reported as ≤ 0.5 µg/mL.
`CNc1cc(F)cc2c1[nH]c1nc(Oc3cnc(C)nc3)nc(N3CCC(C)(CN)C3)c12` (centres unmarked) was tested, and the MIC (S. aureus ATCC 13709; [5]) was ≤ 0.5 µg/mL and the MIC (E. coli ATCC 25922; [6]) was ≤ 0.5 µg/mL.
